According to US6673834B2, “Hydroperylene derivatives” (priority 2001, dated 2004):
Where two headings read alike, the source gives them in different places.

Key:
thrombocytes = test: Test for inhibition of thrombocyte aggregation (turbidimetric, Born; aggregometer PAP 4); format: cell-based; conditions: read-out: IC50 (platelet aggregation)
Excerpt: The inhibition of platelet aggregation can be measured, inter alia, by determining platelet aggregation turbimetrically as described by Born (Born, GV, Nature, 1962,194: 927-929).
(§1) Principle of the test: the method is based on the property that the optical density of a particle suspension depends on the […]. After a platelet suspension has been stimulated, the platelets begin to aggregate. This leads to the appearance of relatively large platelet aggregates and to an increase in light transmission. This increase is registered photometrically, and recorded in curve form, continuously. The degrees to which the thrombocytes can be aggregated, or to which this aggregation can be inhibited, can be deduced from the changes in light transmission. The method of staining cells with calcein was used for determining cytotoxicity (Hollo Z et al., Biochim Biophys Acta 11;1191(2):384-8, 1994). Living cells incorporate the substrate calcein acetoxymethyl ester (C-AM), which is hydrolyzed in the cells by nonspecific esterases. […] In the living cell, it is converted into the fluorescent hydrolysis product and the vitality of the cells can be measured on the basis of the fluorescence (λex:485 nm/λem:538 nm).
By way of example, Table 2 summarizes the inhibitory effects of some hydroperylene derivatives as IC50 values. The IC50 value indicates the concentration which inhibits thrombocyte aggregation by 50% under defined conditions.
Test for Inhibition of Thrombocyte Aggregation
The assay was carried out as follows:
Final concentration of activator: 0.05 U of thrombin/ml or 1 μg of collagen/ml
Aggregation in Aggregometer (PAP 4)
Cell number, 3×10^5 thrombocytes/μl
The blank value for the channels of the aggregometer is first of all adjusted using buffer. The thrombocytes are then pipetted into microtubes and, after the thrombocytes have been added, heated at 37° C. for a few minutes in the aggregometer. After a magnetic stirrer has been added to each reaction tube, the substances, and CaCl2, are added and a start is made in recording the course of the curve in the aggregometer. After 2 minutes of incubation, the activator, or buffer in the case of the control, is added. The course of the curve is then recorded for a further 6 min at 37° C. and at a stirrer speed of 1050 revolutions per minute.

cells = test: Cytotoxicity by staining cells with calcein (calcein AM fluorescence); format: cell-based; conditions: read-out: IC50 (toxicity)
Excerpt: as §1

[1] = Stability of thioperylenol in solution; format: physicochemical
Excerpt: (§2) The physicochemical and spectroscopic properties of thioperylenol can be summarized as follows:
(§3) Brownish crystals which are soluble in medium-polar and polar organic solvents and soluble in aqueous neutral buffers. Stable in neutral and mildly acidic, non-oxidizing medium but unstable in strongly acidic and strongly alkaline solution.

[2] = Solubility of thioperylenol; format: physicochemical
Excerpt: as §2, §3

[3] = concentration which inhibits thrombocyte aggregation by 50%, activator 0.05 U of thrombin/ml or 1 μg of collagen/ml, 37° C.
[4] = cell toxicity, calcein AM staining

Row | Compound | IC50 (thrombocytes; [3]) [µM] | IC50 (cells; [4]) [µM] | also measured
1 | O=C1C[C@@H](O)[C@H]2c3c(ccc(O)c31)-c1ccc(O)c3c1[C@]2(O)C=CC3=O (stereo in doubt) [Alterperylenol] |  |  | IC50 (thrombocytes; Platelet): 1.6 µM; IC50 (cells): > 100 µM
2 | O=C1CCC2(O)c3c(ccc(O)c31)-c1ccc(O)c3c1C2C1OC1C3=O (centres unmarked) [Altertoxin II] | 2.6 | 10 | 
3 | O=C1C[C@H](O)[C@@H]2c3c(ccc(O)c31)-c1ccc(O)c3c1[C@@]2(O)CCC3=O [Altertoxin I] | 29 | > 100 | 
4 | O=C1CC(SCC(O)C(=O)O)[C@]2(O)c3c(ccc(O)c31)-c1ccc(O)c3c1C2C1OC1C3O (some centres unmarked) [Thioperylenol, thioperylenol] |  | 61 | IC50 (thrombocytes; Platelet, concentration which inhibits thrombocyte aggregation by 50%, activator 0.05 U of thrombin/ml or 1 μg of collagen/ml, 37° C.): 7.2 µM; Stability ([1]; neutral and mildly acidic, non-oxidizing medium): Stable; Stability ([1]; strongly acidic and strongly alkaline solution): unstable; Solubility ([2]; aqueous neutral buffers): soluble; Solubility ([2]; medium-polar and polar organic solvents): soluble
5 | Altertoxin III | 6.1 | 20 | 
